This note sets out measurements from ChEMBL document CHEMBL5465560, “Selectivity Literature for EUbOPEN Chemogenomic Library” (2024).

Experiment [1] addresses T1, Myosin-IIIb (Homo sapiens) (UniProt Q8WXR4).
T1 sequence (whole entry): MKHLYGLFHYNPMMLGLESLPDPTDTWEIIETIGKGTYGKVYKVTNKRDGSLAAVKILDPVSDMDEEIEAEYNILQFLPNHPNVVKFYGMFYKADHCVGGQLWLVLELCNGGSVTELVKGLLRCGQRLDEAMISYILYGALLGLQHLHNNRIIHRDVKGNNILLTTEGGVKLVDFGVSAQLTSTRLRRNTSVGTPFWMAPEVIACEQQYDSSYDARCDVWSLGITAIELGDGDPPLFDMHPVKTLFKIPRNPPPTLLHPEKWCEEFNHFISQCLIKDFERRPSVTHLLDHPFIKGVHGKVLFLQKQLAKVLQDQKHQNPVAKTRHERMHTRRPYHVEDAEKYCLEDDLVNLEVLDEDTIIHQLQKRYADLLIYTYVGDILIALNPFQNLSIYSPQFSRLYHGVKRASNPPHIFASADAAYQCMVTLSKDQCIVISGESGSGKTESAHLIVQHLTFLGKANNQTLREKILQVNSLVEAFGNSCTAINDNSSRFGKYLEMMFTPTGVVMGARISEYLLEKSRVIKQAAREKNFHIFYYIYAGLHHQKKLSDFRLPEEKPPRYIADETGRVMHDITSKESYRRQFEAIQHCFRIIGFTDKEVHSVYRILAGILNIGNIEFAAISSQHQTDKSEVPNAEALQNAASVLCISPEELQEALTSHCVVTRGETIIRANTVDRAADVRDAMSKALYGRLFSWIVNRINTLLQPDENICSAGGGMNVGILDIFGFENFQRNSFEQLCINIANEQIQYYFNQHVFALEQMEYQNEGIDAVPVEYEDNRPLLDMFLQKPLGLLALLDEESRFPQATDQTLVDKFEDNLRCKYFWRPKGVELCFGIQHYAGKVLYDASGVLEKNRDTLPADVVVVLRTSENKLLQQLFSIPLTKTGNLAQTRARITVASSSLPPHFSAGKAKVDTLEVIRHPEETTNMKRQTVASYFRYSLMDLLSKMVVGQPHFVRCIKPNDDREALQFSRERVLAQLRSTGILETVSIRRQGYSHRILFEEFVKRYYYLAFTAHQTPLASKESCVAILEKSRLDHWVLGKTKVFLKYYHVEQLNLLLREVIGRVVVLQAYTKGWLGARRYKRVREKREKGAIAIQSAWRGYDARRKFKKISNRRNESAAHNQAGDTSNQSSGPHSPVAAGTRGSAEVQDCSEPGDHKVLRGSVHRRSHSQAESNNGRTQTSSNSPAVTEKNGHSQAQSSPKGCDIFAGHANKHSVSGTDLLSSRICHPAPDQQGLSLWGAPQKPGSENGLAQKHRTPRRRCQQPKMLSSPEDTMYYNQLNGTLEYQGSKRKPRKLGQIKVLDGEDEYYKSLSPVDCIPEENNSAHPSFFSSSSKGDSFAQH
The settings on record: at 10 µM.

The target of experiment [2] is T2, Phosphatidylinositol 5-phosphate 4-kinase type-2 beta (Homo sapiens) (UniProt P78356).
T2 sequence (whole entry): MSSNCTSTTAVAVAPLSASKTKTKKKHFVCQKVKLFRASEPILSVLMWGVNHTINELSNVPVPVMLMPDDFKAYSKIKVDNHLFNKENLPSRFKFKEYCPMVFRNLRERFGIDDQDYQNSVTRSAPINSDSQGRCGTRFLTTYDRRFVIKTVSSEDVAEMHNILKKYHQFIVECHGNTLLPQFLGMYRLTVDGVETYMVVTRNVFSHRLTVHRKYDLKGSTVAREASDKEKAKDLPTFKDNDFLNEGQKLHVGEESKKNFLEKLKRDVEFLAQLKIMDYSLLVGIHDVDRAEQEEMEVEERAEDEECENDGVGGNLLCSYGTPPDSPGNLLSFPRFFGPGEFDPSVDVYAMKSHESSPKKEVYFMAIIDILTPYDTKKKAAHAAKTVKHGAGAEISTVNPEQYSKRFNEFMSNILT
Particulars: at 10 µM.

Experiment [3] has as its target T3, Dual specificity mitogen-activated protein kinase kinase 6 (Homo sapiens) (UniProt P52564).
T3 sequence (whole entry): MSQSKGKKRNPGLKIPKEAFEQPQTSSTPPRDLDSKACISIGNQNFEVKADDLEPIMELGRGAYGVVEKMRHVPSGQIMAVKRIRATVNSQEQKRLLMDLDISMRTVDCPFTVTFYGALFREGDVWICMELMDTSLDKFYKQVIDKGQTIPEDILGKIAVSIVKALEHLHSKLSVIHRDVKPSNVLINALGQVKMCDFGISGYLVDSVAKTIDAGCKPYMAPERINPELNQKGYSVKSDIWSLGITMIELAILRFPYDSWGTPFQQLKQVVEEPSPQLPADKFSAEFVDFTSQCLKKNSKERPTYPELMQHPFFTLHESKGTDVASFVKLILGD
In words: Selectivity interaction (ActivX KiNativ screen (kinase selectivity in THP-1 cell lysates)) EUB0000639a MAP2K6. It counts as subcellular. The settings on record: lysate, at 1 µM.

Experiment [4] addresses T4, Serine/threonine-protein kinase greatwall (Homo sapiens) (UniProt Q96GX5).
T4 sequence (whole entry): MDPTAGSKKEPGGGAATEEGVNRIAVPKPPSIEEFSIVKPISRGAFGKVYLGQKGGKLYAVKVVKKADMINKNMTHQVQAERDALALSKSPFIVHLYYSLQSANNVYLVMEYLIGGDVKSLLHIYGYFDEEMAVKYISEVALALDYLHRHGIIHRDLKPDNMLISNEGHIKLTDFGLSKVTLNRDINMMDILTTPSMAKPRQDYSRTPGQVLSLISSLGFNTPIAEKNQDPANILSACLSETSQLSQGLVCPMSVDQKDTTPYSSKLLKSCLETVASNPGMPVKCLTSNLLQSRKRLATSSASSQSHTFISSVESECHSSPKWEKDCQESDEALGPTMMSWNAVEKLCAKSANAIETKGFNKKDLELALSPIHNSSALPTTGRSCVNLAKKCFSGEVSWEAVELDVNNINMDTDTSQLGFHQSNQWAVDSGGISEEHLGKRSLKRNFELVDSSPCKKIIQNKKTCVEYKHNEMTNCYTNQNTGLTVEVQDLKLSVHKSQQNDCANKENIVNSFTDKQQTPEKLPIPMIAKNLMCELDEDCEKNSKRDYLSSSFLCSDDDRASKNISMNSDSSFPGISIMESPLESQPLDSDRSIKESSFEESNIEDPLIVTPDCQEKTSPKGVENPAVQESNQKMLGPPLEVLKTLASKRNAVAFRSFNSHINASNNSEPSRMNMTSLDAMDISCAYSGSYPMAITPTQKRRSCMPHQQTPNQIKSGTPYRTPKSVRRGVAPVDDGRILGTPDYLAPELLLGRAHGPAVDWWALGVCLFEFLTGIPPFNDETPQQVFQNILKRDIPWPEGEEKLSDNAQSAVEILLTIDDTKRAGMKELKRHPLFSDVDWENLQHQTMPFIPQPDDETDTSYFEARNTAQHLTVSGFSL
Description: Selectivity interaction (ActivX KiNativ screen (kinase selectivity in THP-1 cell lysates)) EUB0000639a MASTL. It counts as subcellular. The settings on record: lysate, at 0.2 µM.

With `Cc1cc([C@@H](C)Nc2ccccc2C(=O)O)c2nc(N3CCOCC3)cc(=O)n2c1` [AZD-6482], the % of control in experiment [1] came to 93%; in experiment [2], 100%.

Regarding `CC[C@@H]1[C@H](F)C(=O)N[C@@H]1COc1nccc2cc(C(N)=O)c(OC)cc12` [ZIMLOVISERTIB], the results for the % of inhibition in experiment [3] and in experiment [4] were 17% and 16.4%, respectively.
